# Tests used:
# Assay type in all cases: in vivo, human patient
# [1] = system: post-operative caesarean section scar; assay: Example 5, Patient one: treatment of an itchy caesarean section scar
# Source text: The patient's chief complaint was a burning itchy sensation in a closed post-operative caesarean section scar. The patient underwent a medical history and physical examination. On examination, an 18 cm irritated lower abdominal vertical healed incision was noted, with evidence of excoriation. […] To avoid the use of adhesives, a control top stretch panty was used to hold the gel—salicylic acid combination in place. Gel plus salicylic acid co-administration was monitored by a daily patient diary. Photographs and patient self report were followed to assess treatment results. Itching complaints were followed using a 10 point itching scale. Pre-treatment itching scale was entered as 6, with the comment that itching bothered the patient “severely, badly.” RESULTS: Compliance with treatment regimen was documented daily. […] On examination, the scar contours appeared to have become more regular and scar color faded.
# post-operative scar = assay: Example 4, Patient two: treatment of a raised post-operative leg scar
# Experimental: The patient's chief complaint was difficulty sleeping or resting because of a post-operative orthopoedic right leg scar that was irritated and raised. The patient underwent a medical history and physical examination. Notable medication use was a 325 mg tablet of acetylsalicylic acid orally administered to prevent thrombo-embolic post-operative complications. On examination, a 15 cm raised erythematous post-operative scar of 15 cm length and approximately 3 mm width was noted, with exquisite sensitivity to examination and evidence of excoriation. At the time of exam, the patient denied itching. […] To avoid the use of adhesives, an ace wrap bandage was used to hold the gel—salicylic acid combination in place. Gel plus salicylic acid co-administration was monitored by a daily patient diary. Photographs and patient self report were used to assess treatment results. Itching complaints were followed using a 10 point itching scale. Pre-treatment itching scale was entered as 0, reflecting onset of aspirin use prior therapy. RESULTS: Compliance with treatment regimen was documented daily. […] Itching symptoms were reported at 0.
# hypertrophic scar [2] = assay: Example 2, Patient three: treatment of a tender hypertrophic facial scar; conditions: 7 weeks
# Source text: The patient's chief complaint was irritation with daily grooming and itching from scars located on the face. The patient underwent a medical history and physical examination. […] Clinical progress was followed using photographic and ultrasound imaging as well as a patient self-report. […] Color changes were documented by photographs. Ultrasound images documented the scar size change.
# hypertrophic scar [3] = assay: Example 3, Patient 25: treatment of an irritated hypertrophic forearm scar
# Experimental: The patient's chief complaint was an irritated scar of the forearm for more than two years. The patient underwent a medical history and physical examination. On examination, a raised irregularly contoured errythematous hypertrophic scar was observed. Materials and Methods: After review of clinical options, the patient was prescribed nabumetone for 4 weeks. […] The combination of nabumetone and hydrogel was used for 15-18 hours each day for a period of 8 weeks. Clinical progress was followed using photographic imaging as well as patient self-report.
# [4] = 2% salicylic acid under hydrogel
# [5] = 2% salicylic acid under hydrogel, 12 weeks
# [6] = nabumetone, then nabumetone + hydrogel 8 weeks
smiles,measurement,setting,value
O=C(O)c1ccccc1O [salicylic acid],redness and local irritation at scar site (photographs),"[1]; 2% salicylic acid topically under AVOGEL hydrogel 15-18 h/day, 12 weeks",reduced redness and local irritation
same,evidence of itching or irritation on examination,[1]; [4],No evidence of itching or irritation
same,scar color on examination,[1]; [4],faded
same,scar contours on examination,[1]; [4],more regular
same,itching symptoms (itching scale),"[1]; 10 point scale, 4th week of treatment, pre-treatment 6",3
same,scar irritation and pruritis,[1]; end of treatment after 20 weeks,reduced to infrequent
same,"shortened measure of the scar, scar contracture (photographs)","post-operative scar; 2% salicylic acid topically under AVOGEL hydrogel 15-18 h/day, 12 weeks, patient also on oral acetylsalicylic acid 325 mg",25%
same,evidence of itching or irritation on examination,post-operative scar; [5],No evidence of itching or irritation
same,patient report,post-operative scar; [5],improved sleep with reduction in scar irritation
same,scar color on examination,post-operative scar; [5],lighter than in pre-treatment
same,scar contours on examination,post-operative scar; [5],flattened
same,itching symptoms (itching scale),"post-operative scar; 10 point scale, pre-treatment entered as 0 (aspirin use prior to therapy)",0
"COc1ccc2cc(CCC(C)=O)ccc2c1 [nabumetone, 4-(6-methoxy-2-naphthalenyl)-2-butanone]",patient self-report,hypertrophic scar [2]; nabumetone + hydrogel,improved comfort
same,redness and tenderness on exam,hypertrophic scar [2]; nabumetone + hydrogel,less redness and tenderness
same,scar color (photographs),hypertrophic scar [2]; nabumetone + hydrogel,revert to a color tone more closely matching adjacent skin
same,"reduction in scar size (examination, ultrasound)",hypertrophic scar [2]; oral nabumetone 250-500 mg daily co-administered with AVOGEL hydrogel sheeting 15-18 h/day,50%
same,irregular contours,hypertrophic scar [3]; [6],faded
same,patient self-report,hypertrophic scar [3]; [6],improved comfort
same,scar color on examination,hypertrophic scar [3]; [6],reverted in color to skin tones closely matching adjacent skin
same,scar height on examination,"hypertrophic scar [3]; oral nabumetone 250 mg daily 4 weeks, then with AVOGEL hydrogel sheeting 15-18 h/day for 8 weeks",became flatter
same,scar visibility on photographic documentation,hypertrophic scar [3]; treatment day 60,not observable

# From US20020013300A1, “Methods for improving size and appearance of a wound” (Avocet Polymer Technologies, Inc., priority 2000, published 2002)
